What was measured:
Assay in all cases: relative viability (nuclei count vs DMSO), 5 days (fraction); higher = more cells survive
PAC-1 + Crizotinib = compound: C=CCc1cccc(/C=N/NC(=O)CN2CCN(Cc3ccccc3)CC2)c1O [PAC-1] + C[C@@H](Oc1cc(-c2cnn(C3CCNCC3)c2)cnc1N)c1c(Cl)ccc(F)c1Cl [Crizotinib] (partner 1 µM)
How it was run: (§1)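 A single step with final 0.05% Triton X-100, 1% formaldehyde and 1 ug/ml Hoechst fixed the cells and stained nuclei 5 days after treatment. Lung cancer cell lines in 1536-well plates had been treated by pin tool the day after seeding with one drug alone or a fixed anchor-drug dose plus five library-drug doses (not always all listed) in √10 steps, and nuclei were counted on 4× images. Relative viability is the ratio of nuclei in treated wells to nuclei in vehicle wells, taken as the median of duplicate plates.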

BMX-IN-1 + Bortezomib = compound: C=CC(=O)Nc1cc(-n2c(=O)ccc3cnc4ccc(-c5ccc(NS(C)(=O)=O)cc5)cc4c32)ccc1C [BMX-IN-1] + CC(C)C[C@H](NC(=O)[C@H](Cc1ccccc1)NC(=O)c1cnccn1)B(O)O [Bortezomib] (partner 0.002 µM)
How it was run: as §1

PAC-1 + Phenformin = compound: C=CCc1cccc(/C=N/NC(=O)CN2CCN(Cc3ccccc3)CC2)c1O [PAC-1] + N=C(N)NC(=N)NCCc1ccccc1 [Phenformin] (partner 250 µM)
How it was run: as §1

PAC-1 + OSI-027 = compound: C=CCc1cccc(/C=N/NC(=O)CN2CCN(Cc3ccccc3)CC2)c1O [PAC-1] + COc1cccc2cc(-c3nc([C@H]4CC[C@H](C(=O)O)CC4)n4ncnc(N)c34)[nH]c12 [OSI-027] (partner 0.5 µM)
How it was run: as §1

BMX-IN-1 + AZD7762 = compound: C=CC(=O)Nc1cc(-n2c(=O)ccc3cnc4ccc(-c5ccc(NS(C)(=O)=O)cc5)cc4c32)ccc1C [BMX-IN-1] + NC(=O)Nc1cc(-c2cccc(F)c2)sc1C(=O)N[C@H]1CCCNC1 [AZD7762] (partner 0.2 µM)
How it was run: as §1

Cell Line	relative viability (PAC-1 + Crizotinib; first compound 0.02 µM)	relative viability (PAC-1 + Crizotinib; first compound 0.06325 µM)	relative viability (PAC-1 + Crizotinib; first compound 0.2 µM)	relative viability (PAC-1 + Crizotinib; first compound 2 µM)	relative viability (BMX-IN-1 + Bortezomib; first compound 0.02 µM)	relative viability (BMX-IN-1 + Bortezomib; first compound 0.2 µM)	relative viability (BMX-IN-1 + Bortezomib; first compound 0.6325 µM)	relative viability (BMX-IN-1 + Bortezomib; first compound 2 µM)	relative viability (PAC-1 + Phenformin; first compound 0.02 µM)	relative viability (PAC-1 + Phenformin; first compound 0.06325 µM)	relative viability (PAC-1 + Phenformin; first compound 0.2 µM)	relative viability (PAC-1 + Phenformin; first compound 2 µM)	relative viability (PAC-1 + OSI-027; first compound 0.02 µM)	relative viability (PAC-1 + OSI-027; first compound 0.06325 µM)	relative viability (PAC-1 + OSI-027; first compound 0.2 µM)	relative viability (PAC-1 + OSI-027; first compound 2 µM)	relative viability (BMX-IN-1 + AZD7762; first compound 0.02 µM)	relative viability (BMX-IN-1 + AZD7762; first compound 0.2 µM)	relative viability (BMX-IN-1 + AZD7762; first compound 0.6325 µM)	relative viability (BMX-IN-1 + AZD7762; first compound 2 µM)
NCI-H1299	0.936	0.94	0.937	0.891	0.968	1.08	1.13	0.97												
NCI-H1395									0.45	0.429	0.421	0.426	0.66	0.603	0.667	0.54	0.4	0.407	0.434	0.376
NCI-H1563	0.851	0.801	0.784	0.969	0.896	0.925	0.891	0.79	0.655	0.679	0.663	0.66	0.757	0.814	0.742	0.753				
NCI-H1623									0.6	0.565	0.592	0.602	0.455	0.446	0.442	0.448				
NCI-H1648													0.239	0.264	0.27	0.317	0.498	0.758	0.747	0.67
NCI-H1650	0.936	1.09	0.898	1.03	0.178	0.203	0.201	0.186	0.427	0.478	0.411	0.42	0.569	0.614	0.55	0.612				
NCI-H1703	0.588	0.897	0.851	0.622	0.257	0.329	0.337	0.242									0.132			0.143

From the supplement of paper PMC10307832
